Calls of active or inactive are those of the source.
Columns and labels:
[1] = target: T1, Calpain-2 catalytic subunit (Sus scrofa, UniProt P43367); experiment: m-calpain protease blockers, concentration series – biochemical, fluorogenic peptide substrate, dose response (AID 1420); format: functional
T1 sequence (P43367 whole entry): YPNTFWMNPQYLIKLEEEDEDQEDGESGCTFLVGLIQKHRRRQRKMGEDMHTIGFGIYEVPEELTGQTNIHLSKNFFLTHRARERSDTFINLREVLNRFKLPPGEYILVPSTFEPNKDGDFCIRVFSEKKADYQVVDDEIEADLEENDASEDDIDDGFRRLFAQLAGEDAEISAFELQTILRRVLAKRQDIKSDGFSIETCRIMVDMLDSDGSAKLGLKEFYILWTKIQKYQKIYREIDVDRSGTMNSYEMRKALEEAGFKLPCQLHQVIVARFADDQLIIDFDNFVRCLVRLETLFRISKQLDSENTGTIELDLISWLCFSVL

[2] = target: T2, Neuropeptide Y receptor type 2 (Homo sapiens, UniProt P49146); format: functional, cell-based;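 note: HEK293 cells expressing the receptor and a CNG channel; stimulus was NPY near EC95 followed by isoproterenol to raise cAMP; antagonist potency measured as restoring cAMP signal that NPY suppresses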
T2 sequence (P49146 whole entry): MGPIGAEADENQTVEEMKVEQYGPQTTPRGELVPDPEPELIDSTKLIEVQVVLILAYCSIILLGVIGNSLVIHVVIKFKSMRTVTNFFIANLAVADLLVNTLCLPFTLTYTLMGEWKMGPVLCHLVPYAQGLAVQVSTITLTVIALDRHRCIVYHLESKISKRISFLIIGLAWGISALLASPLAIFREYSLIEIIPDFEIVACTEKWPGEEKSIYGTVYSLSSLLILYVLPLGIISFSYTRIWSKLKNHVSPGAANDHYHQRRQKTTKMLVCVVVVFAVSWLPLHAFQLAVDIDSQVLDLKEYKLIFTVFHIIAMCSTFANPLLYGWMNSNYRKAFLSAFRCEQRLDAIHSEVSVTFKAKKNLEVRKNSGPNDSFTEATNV

[3] = NIH3T3 cell viability loss – ATP luminescence, mouse fibroblasts, counter-screen, dose response (AID 2010); format: functional, cell-based;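 note: cells exposed to compound for about 90 hours before reading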
[4] = Trypanosoma cruzi growth suppression in host cells – NIH3T3 host cells, beta-gal luminescence, confirmation (AID 2044); format: functional, cell-based;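 note: intracellular parasites grown in NIH/3T3 mouse fibroblasts as host cells; luminescent beta-galactosidase reporter signal from transgenic T. cruzi replicating inside host cells; inhibitors lower the luminescence signal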
[5] = target: T3, Neuropeptide Y receptor type 1 (Homo sapiens, UniProt P25929); format: functional;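 note: HEK293 cells with a CNG channel challenged with NPY then isoproterenol; potency as antagonist that reverses NPY suppression of cAMP signal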
T3 sequence (P25929 whole entry): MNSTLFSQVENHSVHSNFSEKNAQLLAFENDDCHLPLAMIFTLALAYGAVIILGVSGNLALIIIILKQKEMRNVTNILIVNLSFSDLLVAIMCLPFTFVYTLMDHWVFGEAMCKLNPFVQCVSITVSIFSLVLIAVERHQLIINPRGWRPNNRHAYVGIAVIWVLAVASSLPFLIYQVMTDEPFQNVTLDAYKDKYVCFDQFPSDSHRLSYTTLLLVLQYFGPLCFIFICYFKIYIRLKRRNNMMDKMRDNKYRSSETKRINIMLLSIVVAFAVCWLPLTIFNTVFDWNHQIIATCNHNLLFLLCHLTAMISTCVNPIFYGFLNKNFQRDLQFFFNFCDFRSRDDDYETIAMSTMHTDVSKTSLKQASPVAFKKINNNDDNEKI

[6] = target: Luciferin 4-monooxygenase (Photinus pyralis, UniProt P08659); experiment: Counter Screen for Luciferase-based Assay Positives. [Related pubchem assays: 620, 618, 411 ]
[7] = luciferase reporter signal suppression in cells – H4 neuroglioma cells, luminescence, dose response (AID 1990); format: functional, cell-based
HT-1080 = experiment: HT1080 cell viability loss – fluorescence readout (AID 620); format: functional, cell-based; details: Homo sapiens
[8] = Luminescence Cell-Based Dose Response HTS to Identify Inhibitors of 5'UTR Stem-Loop Driven Prion Protein mRNA Translation in H4 Neuroglioblastoma Cells. [Related pubchem assays: 1827 (Project Summary), 1813 (Primary HTS)]; format: functional
[9] = target: T4, Microphthalmia-associated transcription factor (Homo sapiens, UniProt O75030); experiment: reducers of TRPM1 reporter luminescence, concentration series – cell-based, SK-MEL-5, cherry-picked, set 3, MITF inhibitor project, dose response (AID 493073); format: functional;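 note: SK-MEL-5 melanoma cells with luciferase driven by the MITF target TRPM1 promoter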
T4 sequence (O75030 whole entry): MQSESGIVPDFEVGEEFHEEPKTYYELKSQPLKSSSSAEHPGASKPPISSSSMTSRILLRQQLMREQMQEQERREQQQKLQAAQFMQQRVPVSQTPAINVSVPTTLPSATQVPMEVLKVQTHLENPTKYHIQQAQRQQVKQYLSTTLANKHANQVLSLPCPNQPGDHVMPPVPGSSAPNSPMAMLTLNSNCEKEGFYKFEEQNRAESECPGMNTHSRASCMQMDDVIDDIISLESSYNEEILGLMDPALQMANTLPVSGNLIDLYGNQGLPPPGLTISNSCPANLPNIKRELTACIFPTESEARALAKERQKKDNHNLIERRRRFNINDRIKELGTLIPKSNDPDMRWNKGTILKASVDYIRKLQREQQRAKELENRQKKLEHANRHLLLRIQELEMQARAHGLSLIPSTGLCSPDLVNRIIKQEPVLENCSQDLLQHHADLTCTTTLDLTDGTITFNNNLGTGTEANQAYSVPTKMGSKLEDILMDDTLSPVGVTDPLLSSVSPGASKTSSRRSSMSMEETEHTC

[10] = alpha-synuclein stem-loop luciferase translation blockers – H4 neuroglioma cells, luminescence, confirmation (AID 1988); format: functional, cell-based
Cytochrome P450 3A4 = Cytochrome P450 3A4 (Homo sapiens, UniProt P08684);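 note: CYP3A4 tested as one member of a cytochrome P450 panel screen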
Cytochrome P450 2C9 = Cytochrome P450 2C9 (Homo sapiens, UniProt P11712)
[11] = Luminescence-based dose response cell-based high throughput screening assay for cytotoxic compounds using the IEC-6 intestinal epithelial cell line. [Related pubchem assays: 1858 (Summary AID.), 1825 (Counterscreen.), 1907 (Confirmation screen.)]; format: functional
[12] = viability of uninfected HEp-2 cells – cell-based, HTS, cytotoxicity control for RSV inhibitor project, dose response (AID 2410); format: functional; details: human respiratory syncytial virus
[13] = HEK-293T cell viability reduction – luminescence, B-cell screen hits, cytotoxicity control for BCR NF-kB inhibitor project, dose response (AID 489021); format: functional, cell-based;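 note: HEK-293T cells carrying an NF-kB luciferase reporter; cells exposed to compound for about 14 hours before viability readout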
[14] = Luminescence Cell-Based Dose Confirmation to Identify Activators of 5'UTR Stem-Loop Driven Alpha-Synuclein mRNA Translation in H4 Neuroglioblastoma Cells. [Related pubchem assays: 1829 (Project Summary), 1814 (Primary HTS)]; format: functional
H4 = experiment: Luminescence Cell-Based Dose Response HTS to Identify Activators of 5'UTR Stem-Loop Driven Prion Protein mRNA Translation in H4 Neuroglioblastoma Cells. [Related pubchem assays: 1829 (Project Summary), 1814 (Primary HTS)]; format: functional; details: Homo sapiens
[15] = Luminescence Cell-Based Dose Confirmation HTS to Identify Activators of 5'UTR Stem-Loop Driven Alpha-Synuclein mRNA Translation in H4 Neuroglioblastoma Cells. [Related pubchem assays: 1829 (Project Summary), 1814 (Primary HTS)]; format: functional
[16] = Luminescence Cell-Based Dose Response to Identify Activators of 5'UTR Stem-Loop Driven Prion Protein mRNA Translation in H4-C Neuroglioblastoma Cells. [Related pubchem assays: 1829 (Project Summary), 1814 (Primary HTS)]; format: functional
[17] = Luminescence Cell-Based Dose Response HTS to Identify Activators of Luciferase Translation or Activity in H4 […] Cells. [Related pubchem assays: 1829 (Project Summary), 1814 (Primary HTS)]; format: functional
[18] = Luminescence Cell-Based Dose Response to Identify Activators of Luciferase Translation or Activity in H4-C Neuroglioblastoma Cells. [Related pubchem assays: 1829 (Project Summary), 1814 (Primary HTS)]; format: functional
NADPH oxidase 1 = target: T5, NADPH oxidase 1 (Homo sapiens, UniProt Q9Y5S8); format: functional, cell-based;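 note: Cell-based assay with luminescence read-out, IC50 derived from inhibitor dose-response curves; intracellular ROS from endogenous NOX1 in intact HT29 colon cancer cells; potency of inhibitors that lower the ROS luminescence signal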
T5 sequence (Q9Y5S8 whole entry): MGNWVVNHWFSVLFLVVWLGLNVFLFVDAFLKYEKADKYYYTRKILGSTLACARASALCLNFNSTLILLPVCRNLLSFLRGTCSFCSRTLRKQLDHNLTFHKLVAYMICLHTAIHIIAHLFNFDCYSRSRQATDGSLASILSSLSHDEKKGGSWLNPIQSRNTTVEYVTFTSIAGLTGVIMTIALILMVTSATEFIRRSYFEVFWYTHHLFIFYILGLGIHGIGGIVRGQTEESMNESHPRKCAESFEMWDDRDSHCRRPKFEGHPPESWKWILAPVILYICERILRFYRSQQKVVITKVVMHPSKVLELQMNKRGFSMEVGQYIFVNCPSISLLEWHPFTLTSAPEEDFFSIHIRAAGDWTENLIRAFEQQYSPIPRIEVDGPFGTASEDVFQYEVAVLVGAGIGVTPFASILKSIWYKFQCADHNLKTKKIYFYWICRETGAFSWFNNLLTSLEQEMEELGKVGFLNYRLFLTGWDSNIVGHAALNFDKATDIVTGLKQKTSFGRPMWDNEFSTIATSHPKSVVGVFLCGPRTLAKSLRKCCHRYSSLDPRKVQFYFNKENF

[19] = target: Epstein-Barr nuclear antigen 1 (Epstein-Barr virus (strain B95-8) (HHV-4) (Human herpesvirus 4), UniProt P03211); experiment: inhibition of EBV nuclear antigen 1 DNA binding – biochemical, fluorescence polarization, 1536-well, dose response (AID 2381); design: species or system human gammaherpesvirus 4;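 note: fluorescence polarization of a Cy5 DNA probe bound by EBNA-1 protein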
[20] = target: Lytic switch protein BZLF1 (Epstein-Barr virus (strain B95-8) (HHV-4) (Human herpesvirus 4), UniProt P03206); experiment: inhibition of BZLF1 ZTA DNA binding – biochemical, fluorescence polarization, Epstein-Barr virus, 1536-well, counter-screen for EBNA-1 inhibitor project, dose response (AID 2377); design: species or system human gammaherpesvirus 4;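 note: fluorescence polarization of Cy5-labelled ZRE DNA probe bound by purified Zta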
[21] = A Cell Based Secondary Assay To Explore Cytotoxicity of Compounds that Sensitize Mycobacterium Tuberculosis to Beta-Lactam Antibiotics.; format: functional

Chain of Lytic switch protein BZLF1 (P03206 whole entry): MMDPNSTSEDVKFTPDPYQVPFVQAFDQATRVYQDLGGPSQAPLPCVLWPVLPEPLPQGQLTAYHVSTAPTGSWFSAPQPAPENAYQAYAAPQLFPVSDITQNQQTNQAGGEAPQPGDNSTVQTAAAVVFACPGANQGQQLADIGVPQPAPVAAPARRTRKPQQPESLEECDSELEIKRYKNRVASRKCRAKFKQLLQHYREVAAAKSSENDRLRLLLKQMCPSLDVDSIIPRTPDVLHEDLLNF
Chain of Epstein-Barr nuclear antigen 1 (P03211 whole entry): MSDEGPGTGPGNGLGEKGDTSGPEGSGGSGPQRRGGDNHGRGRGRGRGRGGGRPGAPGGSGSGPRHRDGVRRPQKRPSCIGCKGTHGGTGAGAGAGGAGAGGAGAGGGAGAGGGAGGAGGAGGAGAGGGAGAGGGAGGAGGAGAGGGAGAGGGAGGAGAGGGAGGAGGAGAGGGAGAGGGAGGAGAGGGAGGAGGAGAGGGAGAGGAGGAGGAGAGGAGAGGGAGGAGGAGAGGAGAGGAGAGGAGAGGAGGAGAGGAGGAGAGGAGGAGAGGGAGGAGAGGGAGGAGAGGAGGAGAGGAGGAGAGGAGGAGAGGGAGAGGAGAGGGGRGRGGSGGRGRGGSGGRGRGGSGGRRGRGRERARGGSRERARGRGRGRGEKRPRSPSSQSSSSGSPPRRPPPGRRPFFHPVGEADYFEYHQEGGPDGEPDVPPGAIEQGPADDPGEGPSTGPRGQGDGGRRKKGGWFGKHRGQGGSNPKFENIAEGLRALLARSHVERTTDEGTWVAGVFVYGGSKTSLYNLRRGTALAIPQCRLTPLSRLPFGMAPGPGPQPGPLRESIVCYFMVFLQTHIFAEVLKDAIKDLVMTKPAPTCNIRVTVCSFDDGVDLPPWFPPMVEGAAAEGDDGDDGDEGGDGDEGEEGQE
Chain of Cytochrome P450 2C9 (P11712 whole entry): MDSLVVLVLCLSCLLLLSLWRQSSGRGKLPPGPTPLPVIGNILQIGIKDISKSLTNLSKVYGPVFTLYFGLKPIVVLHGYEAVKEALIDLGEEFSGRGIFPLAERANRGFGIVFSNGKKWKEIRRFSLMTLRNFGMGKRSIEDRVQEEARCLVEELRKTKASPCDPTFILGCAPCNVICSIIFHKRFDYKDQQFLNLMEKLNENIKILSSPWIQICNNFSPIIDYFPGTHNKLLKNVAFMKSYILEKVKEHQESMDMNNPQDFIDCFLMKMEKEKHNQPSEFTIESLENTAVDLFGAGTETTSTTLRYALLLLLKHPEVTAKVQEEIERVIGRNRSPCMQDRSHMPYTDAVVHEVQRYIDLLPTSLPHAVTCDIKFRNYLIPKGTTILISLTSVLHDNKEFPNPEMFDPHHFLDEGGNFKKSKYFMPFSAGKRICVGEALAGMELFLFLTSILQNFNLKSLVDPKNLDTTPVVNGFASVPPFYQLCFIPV
Chain of Cytochrome P450 3A4 (P08684 whole entry): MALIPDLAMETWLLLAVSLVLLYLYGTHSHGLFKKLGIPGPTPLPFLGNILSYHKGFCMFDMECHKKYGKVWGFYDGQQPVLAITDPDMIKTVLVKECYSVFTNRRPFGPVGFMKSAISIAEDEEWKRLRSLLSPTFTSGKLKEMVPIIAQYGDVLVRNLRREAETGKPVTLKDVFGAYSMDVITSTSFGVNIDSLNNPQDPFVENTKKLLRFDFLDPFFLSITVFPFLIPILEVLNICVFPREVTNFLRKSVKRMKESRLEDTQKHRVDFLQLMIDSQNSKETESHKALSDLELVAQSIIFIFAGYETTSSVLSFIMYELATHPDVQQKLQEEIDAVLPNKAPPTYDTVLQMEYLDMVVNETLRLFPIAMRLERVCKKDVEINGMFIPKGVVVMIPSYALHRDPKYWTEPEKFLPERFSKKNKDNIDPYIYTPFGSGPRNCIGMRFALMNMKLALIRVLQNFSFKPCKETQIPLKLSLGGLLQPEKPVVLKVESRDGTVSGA
Chain of Luciferin 4-monooxygenase (P08659 whole entry): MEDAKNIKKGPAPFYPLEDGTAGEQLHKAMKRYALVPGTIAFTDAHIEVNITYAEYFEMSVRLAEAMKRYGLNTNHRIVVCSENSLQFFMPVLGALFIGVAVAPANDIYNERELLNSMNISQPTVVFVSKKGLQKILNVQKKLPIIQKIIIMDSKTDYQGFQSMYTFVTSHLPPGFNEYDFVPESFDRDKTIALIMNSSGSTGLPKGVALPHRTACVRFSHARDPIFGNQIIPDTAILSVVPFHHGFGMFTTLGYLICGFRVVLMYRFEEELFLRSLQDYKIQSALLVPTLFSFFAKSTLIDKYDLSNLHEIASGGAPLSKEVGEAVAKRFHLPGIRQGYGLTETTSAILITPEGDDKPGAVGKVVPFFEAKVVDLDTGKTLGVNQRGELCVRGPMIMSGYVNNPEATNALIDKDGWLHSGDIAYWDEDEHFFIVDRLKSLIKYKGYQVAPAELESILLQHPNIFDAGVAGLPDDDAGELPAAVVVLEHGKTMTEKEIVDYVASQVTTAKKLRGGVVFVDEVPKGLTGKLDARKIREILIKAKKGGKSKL

O=P(CCCCCCCCCP(=O)(c1ccccc1)c1ccccc1)(c1ccccc1)c1ccccc1
IC50 [1]: 12 µM (not active) | IC50 [2]: 1.65 µM (active) | EC50 [3]: > 60 µM (not active) | EC50 [4]: 1.29 µM (active) | IC50 [5]: 10.4 µM (not active)

O=C1c2ccccc2S(=O)(=O)N1Cc1nc2ccccc2s1
EC50 [6]: 7.63 µM (active) | EC50 [7]: 7.48 µM (active) | EC50 (HT-1080): > 50 µM (not active) | EC50 [8]: 7.02 µM (active) | AC50 [9]: 2.7 µM (active) | EC50 [10]: 4.21 µM (active)

C(=N\Nc1nc(Nc2ccccc2)nc(N2CCOCC2)n1)/c1c[nH]c2ccccc12
EC50 (cells): 18 nM (active) | AC50 (Cytochrome P450 3A4): 15.8 µM (inconclusive) | AC50 (Cytochrome P450 2C9): 17.8 µM (inconclusive) | EC50 [3]: 0.536 µM (active) | IC50 [11]: 244 nM (active) | EC50 [4]: < 0.1 µM (active) | CC50 [12]: 28.8 µM (active) | IC50 [13]: 28.5 µM (inactive)

Cc1ccc(CNC(=O)c2ccc(Cn3cc(-c4ccc(C)cc4)nc3-c3ccncc3)cc2)cc1
EC50 [14]: 1.12 µM (active) | EC50 (H4): 1.33 µM (active) | EC50 [15]: < 100 nM (active) | EC50 [16]: > 12 µM (not active) | EC50 [17]: < 100 nM (active) | EC50 [18]: 656 nM (active)

O=C(Nc1cccc(Cn2cccn2)c1)c1cc2c(s1)CCCC2
EC50 [14]: 0.651 µM (active) | EC50 (H4): 10.9 µM (active) | EC50 [16]: > 12 µM (not active) | EC50 [17]: < 100 nM (active) | EC50 [18]: 853 nM (active)

C=C(NNc1c(Cl)c(Cl)nc(C(=O)O)c1Cl)c1ccc(N2CCOCC2)cc1
IC50 (NADPH oxidase 1): > 17 µM (not active)

Cc1ccc2nc3c(O)n(Cc4ccco4)cnc-3c2c1
IC50 [19]: > 148 µM (not active) | IC50 [20]: > 111 µM (not active)

CC(C)CCSc1nc(N2CCOCC2)c2c(c1C#N)CC(C)(C)OC2
CC50 [21]: > 40 µM (active) | EC50 [3]: > 60 µM (not active) | EC50 [7]: 16.4 µM (active) | EC50 [8]: > 120 µM (not active) | EC50 [4]: 1.3 µM (active) | EC50 [10]: 31.3 µM (active)

COc1ccc2c(c1)Sc1ccc(Cl)cc1N2
IC50 (NADPH oxidase 1): 0.177 µM (active)

N#Cc1ccccc1OCC(=O)Nc1c(C(=O)C2CC2)oc2ccccc12
IC50 [19]: 11 µM (not active) | IC50 [20]: > 111 µM (not active)

— ChEMBL document CHEMBL1201862, “PubChem BioAssay data set” (2004)
